In brackets after ≈: the same amount, converted by molar mass.
Legend:
[1] = physchem
Protocol: It details the cell cultivation and seeding procedure, the preparation of the reference, control and test chemicals, the procedure for agonist testing and antagonist testing, prescreen runs, and comprehensive runs, as well as data analysis and data interpretation. This SOP also includes references to the SOPs for solubility testing and cytotoxicity testing. […] Solubility was tested both in the solvent and in media under similar circumstances as would be required during the (ant)agonist testing. The initial concentration to be tested was prescribed at 50 mg/ml. Starting from the highest soluble concentration, cytotoxicity was determined with an LDH assay. Visual checking of cytotoxicity in all wells of the plate was however also required for each run.
This included an investigation by heating, centrifugation, microscopy, and visual checking. […] For the purpose of the validation study, the labs were requested to start from 50 mg/ml as the maximal stock concentration to be tested.

[2] = target: T1, human androgen receptor (hAR) (Homo sapiens, UniProt P10275); assay: AR-CALUX antagonist assay (medium spiked with DHT at EC50); assay type: cell-based
T1 construct: host or cells: U2-OS human osteosarcoma cells (ATCC HTB 96), stably transfected (AR-CALUX cell line)
T1 sequence (P10275 1-920): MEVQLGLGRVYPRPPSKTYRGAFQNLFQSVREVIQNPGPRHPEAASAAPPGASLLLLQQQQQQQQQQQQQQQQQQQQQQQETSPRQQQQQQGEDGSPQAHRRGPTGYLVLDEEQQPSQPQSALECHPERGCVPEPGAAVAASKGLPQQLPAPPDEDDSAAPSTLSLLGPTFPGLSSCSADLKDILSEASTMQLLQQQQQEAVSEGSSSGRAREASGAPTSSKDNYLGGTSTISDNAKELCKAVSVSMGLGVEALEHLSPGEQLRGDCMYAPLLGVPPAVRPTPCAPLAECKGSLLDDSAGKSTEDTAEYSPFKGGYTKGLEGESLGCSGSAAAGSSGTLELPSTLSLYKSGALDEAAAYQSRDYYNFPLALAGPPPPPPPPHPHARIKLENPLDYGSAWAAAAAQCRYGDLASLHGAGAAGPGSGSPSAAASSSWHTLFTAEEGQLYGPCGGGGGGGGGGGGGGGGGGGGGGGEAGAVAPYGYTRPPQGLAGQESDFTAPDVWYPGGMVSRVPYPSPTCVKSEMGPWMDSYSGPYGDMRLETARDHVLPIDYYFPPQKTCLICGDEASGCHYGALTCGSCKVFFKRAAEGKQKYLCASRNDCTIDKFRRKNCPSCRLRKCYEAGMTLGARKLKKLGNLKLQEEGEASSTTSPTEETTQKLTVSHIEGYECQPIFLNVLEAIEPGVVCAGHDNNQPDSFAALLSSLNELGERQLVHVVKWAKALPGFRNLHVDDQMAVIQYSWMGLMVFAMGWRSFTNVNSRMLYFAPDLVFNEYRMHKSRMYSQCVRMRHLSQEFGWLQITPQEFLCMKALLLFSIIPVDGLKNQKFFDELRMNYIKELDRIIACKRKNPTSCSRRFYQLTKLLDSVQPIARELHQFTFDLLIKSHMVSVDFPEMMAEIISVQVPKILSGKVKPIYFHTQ
From the text: (§1) The AR-CALUX® cell line was created by BioDetection Systems (BDS). It can be purchased from BDS with a license (https://www.biodetectionsystems.com). The human osteosarcoma cell line U2-OS (ATCC HTB 96) was transfected with 2 constructs: pSG5-neo-hAR carrying the cDNA of a human androgen receptor (hAR) under a constitutive promoter, and, a luciferase reporter gene which is preceded by a triple tandem of AREs in front of a TATA box (3x ARE Luc). […] The AR-CALUX® cell line was obtained from the test method developer BDS. EURL ECVAM prepared a master cell bank and a large working cell bank which were tested for the absence of mycoplasma, bacteria, fungi, and yeast and for the absence of Hepatitis B and C and HIV. In addition, to verifying the authenticity of the cell line, Short Tandem Repeat (STR) profiling was carried out to confirm the test system to be U2-OS cells. […] The laboratories were requested, at the end of each part of the study (Parts 1, 2, and 3), to perform a mycoplasma test of their choice. Additional aliquots were sent to EURL ECVAM for a reanalysis of authenticity.
(§2) Subsequently, the test chemical was assessed with a prescreen run (dilution steps of 10) and simultaneously with the quantitative cytotoxicity test to determine (1) cytotoxic concentrations, (2) the response, and (3) the appropriate dose range to be tested. […] The cytotoxicity test was performed once more. Test chemicals were diluted in media and consisted of 8 serial dilutions. Each dilution was tested in triplicate.
(§3) Each experiment (run) was comprised of a maximum of 6 plates. The first plate would contain 8 serial dilutions of the reference chemical DHT (for agonism) or Flutamide (for antagonism), while the positive and negative controls were added at fixed concentrations. In addition, a solvent control was added (medium without the chemical but with DMSO 0.1%).
For the antagonist assay, the medium was supplemented with DHT at EC50 concentration (standard assay). […] Each antagonist assay was accompanied by a specificity control test carried out on the same plate.
A. Positive (competitive antagonist) when the relative induction (Yc) of the test item is ≤ 80% (REF RPC80) for two or more consecutive concentrations and […]

[3] = target: T1, human androgen receptor (hAR); assay: cell-based; assay type: cell-based
From the text: as §1, §2, §3
A. Positive when the relative induction (Yc) of the test item is ≥ 10% (REF RPC10) for two or more consecutive concentrations.

[4] = aqueous buffer, kinetic from dmso stock, Solubility in medium, Lab 1, assay medium, Lab 1
[5] = aqueous buffer, kinetic from dmso stock, Solubility in medium, Lab 2, assay medium, Lab 2
[6] = aqueous buffer, kinetic from dmso stock, Solubility in medium, Lab 3, assay medium, Lab 3
[7] = aqueous buffer, kinetic from dmso stock, Solubility in medium, Lab 4, assay medium, Lab 4
[8] = organic solvent or mixture, thermodynamic from solid, Solubility in DMSO, Lab 1, DMSO, Lab 1, highest tested 50 mg/ml
[9] = organic solvent or mixture, thermodynamic from solid, Solubility in DMSO, Lab 2, DMSO, Lab 2, highest tested 50 mg/ml
[10] = organic solvent or mixture, thermodynamic from solid, Solubility in DMSO, Lab 3, DMSO, Lab 3, highest tested 50 mg/ml
[11] = organic solvent or mixture, thermodynamic from solid, Solubility in DMSO, Lab 4, DMSO, Lab 4, highest tested 50 mg/ml

Q: For `C[C@]1(O)CC[C@H]2[C@@H]3CCC4=CC(=O)CC[C@]4(C)[C@@]3(F)[C@@H](O)C[C@@]21C` [Fluoxymesterone], which solubility [1, 4] is on record?
A: 5 µg/mL (≈ 14.9 µM)

Q: What about the solubility [1, 5] of the same compound?
A: 5 µg/mL (≈ 14.9 µM)

Q: What about the solubility [1, 6] of the same compound?
A: 5 µg/mL (≈ 14.9 µM)

Q: What about the solubility [1, 7] of the same compound?
A: 15 µg/mL (≈ 44.6 µM)

Q: And the solubility [1, 8]?
A: > 50000 µg/mL

Q: What about the solubility [1, 9] of the same compound?
A: 5000 µg/mL (≈ 14900 µM)

Q: And the solubility [1, 10]?
A: > 50000 µg/mL

Q: What about the solubility [1, 11] of the same compound?
A: > 50000 µg/mL

Q: Which solubility [1, 4] does the source give for `C=CC1(C)OC(=O)N(c2cc(Cl)cc(Cl)c2)C1=O` (stereo not shown) [Vinclozolin] here?
A: 5 µg/mL (≈ 17.5 µM)

Q: What about the solubility [1, 5] of the same compound?
A: 15 µg/mL (≈ 52.4 µM)

Q: And the solubility [1, 6]?
A: 15 µg/mL (≈ 52.4 µM)

Q: And the solubility [1, 7]?
A: 15 µg/mL (≈ 52.4 µM)

Q: What about the solubility [1, 8] of the same compound?
A: > 50000 µg/mL

Q: What about the solubility [1, 9] of the same compound?
A: > 50000 µg/mL

Q: What about the solubility [1, 10] of the same compound?
A: > 50000 µg/mL

Q: What about the solubility [1, 11] of the same compound?
A: > 50000 µg/mL

Q: What does the source list for `CCCCOC(=O)c1ccccc1C(=O)OCc1ccccc1` [Benzylbutyl phthalate]?
A: solubility [1, 4]: 1.5 µg/mL (≈ 4.8 µM); solubility [1, 5]: > 50 µg/mL; solubility [1, 6]: 15 µg/mL (≈ 48 µM); solubility [1, 7]: 15 µg/mL (≈ 48 µM); solubility [1, 8]: > 50000 µg/mL; solubility [1, 9]: > 50000 µg/mL; solubility [1, 10]: > 50000 µg/mL; solubility [1, 11]: > 50000 µg/mL

Q: Which “Solubility in DMSO, Lab 1” value ([1]; DMSO, Lab 1, highest tested 50 mg/ml) does the source give for `C[C@]12CCC(=O)C[C@@H]1CC[C@@H]1[C@@H]2CC[C@@]2(C)[C@H]1CC[C@]2(C)O` [Methyldihydrotestosterone] here?
A: 5000 µg/mL (≈ 16400 µM)

Q: And the “Solubility in DMSO, Lab 2” value ([1]; DMSO, Lab 2, highest tested 50 mg/ml)?
A: 5000 µg/mL (≈ 16400 µM)

Q: And the “Solubility in DMSO, Lab 3” value ([1]; DMSO, Lab 3, highest tested 50 mg/ml)?
A: 15000 µg/mL (≈ 49300 µM)

Q: And the “Solubility in DMSO, Lab 4” value ([1]; DMSO, Lab 4, highest tested 50 mg/ml)?
A: 15000 µg/mL (≈ 49300 µM)

Q: And the “Solubility in medium, Lab 1” value ([1]; assay medium, Lab 1)?
A: 5 µg/mL (≈ 16.4 µM)

Q: And the “Solubility in medium, Lab 2” value ([1]; assay medium, Lab 2)?
A: 5 µg/mL (≈ 16.4 µM)

Q: And the “Solubility in medium, Lab 3” value ([1]; assay medium, Lab 3)?
A: 5 µg/mL (≈ 16.4 µM)

Q: What about the “Solubility in medium, Lab 4” value ([1]; assay medium, Lab 4) of the same compound?
A: 5 µg/mL (≈ 16.4 µM)

Q: With `CC(C)(c1ccc(O)cc1)c1ccc(O)cc1` [Bisphenol A] as the compound, how does the “Antagonist classification per run, Lab 1” value ([2]; Lab 1, 3 runs) read?
A: P P P

Q: And the “Antagonist classification per run, Lab 2” value ([2]; Lab 2, 3 runs)?
A: P P P

Q: And the “Antagonist classification per run, Lab 3” value ([2]; Lab 3, 3 runs)?
A: P P P

Q: What about the “Antagonist classification per run, Lab 4” value ([2]; Lab 4, 3 runs) of the same compound?
A: P P P

Q: What about the IC50 ([2]; logIC50 averaged over 4 labs, 3 valid runs per lab, read-out: Antagonist Overall logIC50 (converted)) of the same compound?
A: 1.38 µM

Q: What about the “Agonist classification per run, Lab 1” value ([3]; Lab 1, 3 runs) of the same compound?
A: N N N

Q: What about the “Agonist classification per run, Lab 2” value ([3]; Lab 2, 3 runs) of the same compound?
A: N N N

Q: What about the “Agonist classification per run, Lab 3” value ([3]; Lab 3, 3 runs) of the same compound?
A: N N N

Q: And the “Agonist classification per run, Lab 4” value ([3]; Lab 4, 3 runs)?
A: N N N

Q: What about the solubility ([1]; aqueous buffer, kinetic from dmso stock, Solubility in medium, Lab 1) of the same compound?
A: 15 µg/mL (≈ 65.7 µM)

Q: And the solubility ([1]; aqueous buffer, kinetic from dmso stock, Solubility in medium, Lab 2)?
A: > 50 µg/mL

Q: What about the solubility ([1]; aqueous buffer, kinetic from dmso stock, Solubility in medium, Lab 3) of the same compound?
A: > 50 µg/mL

Q: And the solubility ([1]; aqueous buffer, kinetic from dmso stock, Solubility in medium, Lab 4)?
A: > 50 µg/mL

Q: What about the solubility ([1]; organic solvent or mixture, thermodynamic from solid, Solubility in DMSO, Lab 1) of the same compound?
A: > 50000 µg/mL

Q: What about the solubility ([1]; organic solvent or mixture, thermodynamic from solid, Solubility in DMSO, Lab 2) of the same compound?
A: > 50000 µg/mL

Q: And the solubility ([1]; organic solvent or mixture, thermodynamic from solid, Solubility in DMSO, Lab 3)?
A: > 50000 µg/mL

Q: And the solubility ([1]; organic solvent or mixture, thermodynamic from solid, Solubility in DMSO, Lab 4)?
A: > 50000 µg/mL

Reference: paper PMC8557474, “Reliability of the AR-CALUX®In Vitro Method Used to Detect Chemicals with (Anti)Androgen Activity: Results of an International Ring Trial” (Toxicological Sciences, 2021)
